Measurements taken from patent US7452691B2, “Device and method for detecting antibiotic inactivating enzymes” (priority 2005, dated 2008).
≈ marks a conversion by molar mass, not a printed value. Read-outs that look alike come from different tables or passages of the source.

Key:
L-1 = L-1 (Stenotrophomonas maltophilia, UniProt P52700); assay: Indirect reagent disk test, antibiotic inactivation; assay type: cell-based; conditions: enzyme L-1; indirect method; also: key: P, positive; N, negative; WP, weak positive (slight flattening); ?, results were questionable
Description: (§1) • 1. […] Performing and Interpreting the Test • 1.

[1] = system: β-lactamases of Klebsiella isolates (AmpC); assay: Isoelectric focusing with inhibitor overlays; assay type: biochemical, Klebsiella spp.; conditions: nine of ten positive Klebsiella isolates; 1000 μM overlay
Procedure: Crude sonicates were subjected to analytical isoelectric focusing (IEF) on an ampholine polyacrylamide gel (pH range 3.5-9.5) on a flatbed apparatus (Multiphor LKB). Inhibitor overlays of the IEF gel were performed with 1000 μM clavulanic acid and cloxacillin.

SHV-1 = SHV-1 (Klebsiella pneumoniae, UniProt P0AD64); assay: Indirect reagent disk test, antibiotic inactivation; assay type: cell-based; conditions: enzyme SHV-1; indirect method
Description: (§3) A solution of equal parts of physiological saline and Tris EDTA (Sigma Chemicals) is made. • 2. A 20 microliter aliquot of the permeabilizing agent solution was placed onto a filter paper disk and allowed to dry. […] The filter paper disk impregnated with the permeabilizing agent was rehydrated with 20 microliters of sterile physiological saline. • 2. Using a cotton swab or loop, a test organism was rubbed onto the rehydrated disk. • 3. A Mueller Hinton Agar plate was inoculated with a 0.5 McFarland of E. coli ATCC 25922. • 4. A cefoxitin disk was placed onto the surface of the agar plate. The rehydrated disk inoculated with the test organism next was placed next to the cefoxitin disk, at a distance of about 0.5-1.0 mm. • 5. The agar plate was incubated at 37° C. for about 16 hours, or overnight. • 6. Distortion of the cefoxitin zone was interpreted as a positive result (i.e., the presence of an antibiotic-inactivating factor was detected), whereas lack of distortion of the cefoxitin zone was interpreted as a negative result.
(§4) The indirect method was performed essentially as described in Example 4, except the antibiotic disks were as indicated. An indentation of a zone of inhibition around the antibiotic dish was interpreted as positive for presence of antibiotic-inactivating factor.

OXA-4 = assay: as above; assay type: cell-based; conditions: enzyme OXA-4; indirect method
Procedure: as §4

OXA-5 = OXA-5 (Pseudomonas aeruginosa, UniProt Q00982); assay: as above; assay type: cell-based; conditions: enzyme OXA-5; indirect method
Procedure: as §4

OXA-6 = assay: as above; assay type: cell-based; conditions: enzyme OXA-6; indirect method
Procedure: as §4

Klebsiella spp. isolates = assay: Antimicrobial susceptibility by NCCLS microdilution (MIC); assay type: cell-based
Procedure: Thirty recent isolates of Klebsiella spp. were collected from patients in United States hospitals.
Antimicrobial susceptibility was determined by NCCLS microdilution methodology using an investigational Microscan dehydrated panel.

PSE-1 = PSE-1 (Pseudomonas aeruginosa, UniProt Q03170); assay: Indirect reagent disk test, antibiotic inactivation; assay type: cell-based; conditions: enzyme PSE-1; indirect method
Description: as §1

SHV-4 = SHV-4 (Klebsiella pneumoniae, UniProt P37323); assay: as above; assay type: cell-based; conditions: enzyme SHV-4; indirect method
Description: as §3, §4

TEM-46 = assay type: cell-based; conditions: enzyme TEM-46; indirect method
Procedure: as §4

SHV-2 = SHV-2 (Escherichia coli, UniProt P0A9Z7); assay: Indirect reagent disk test, antibiotic inactivation; assay type: cell-based; conditions: enzyme SHV-2; indirect method
Description: as §3, §4

[2] = system: E. coli MISC 208 (which produces the extended spectrum β-lactamase SHV-2); conditions: 0° C.
Procedure: In this Example, E. coli MISC 208 (which produces the extended spectrum β-lactamase SHV-2) was used as a test organism and nitrocefin was the substrate in spectrophotometric hydrolysis assays. The E. coli strain was harvested directly into 100 microliters of Mueller Hinton Broth and mixed with 100 microliters of the permeabilizing agent.
In the hydrolysis assay, units of activity are calculated as:
Briefly, a 100 μM solution of nitrocefin was used as a substrate. The nitrocefin was prewarmed to 37° C. The hydrolysis assay was performed at 37° C. at a wavelength of 389.5 with an extinction coefficient of −0.024. An appropriate cuvette was filled with 0.9 ml of the prewarmed nitrocefin substrate and 100 ul of permeabilized bacterial suspension was added. The contents of the cuvette were immediately mixed by inversion and the cuvette was placed in a spectrophotometer. Absorbance was assayed at 5-second intervals for up to 5 minutes with the 37° C. temperature maintained by means of a circulating water bath that warmed the cuvette block. When the assay was complete, the activity was calculated according to the above formula.

E. coli V1104 = assay: Spectrophotometric hydrolysis assay of β-lactamase released by permeabilizing agent, nitrocefin as substrate; assay type: cell-based
Procedure: (§2) H., et al., A.A.C. 1:283-288 (1972). […] The nitrocefin was prewarmed to 37° C.
The experiment in Example 1 was repeated using E. coli V1104 to evaluate a variety of permeabilizing agents. Nitrocefan was the hydrolysis substrate.

E. coli MISC 208 = assay: Spectrophotometric hydrolysis assay of β-lactamase released by permeabilizing agent, cefaclor as substrate; assay type: cell-based
Procedure: as §2
The experiment in Example 1 was repeated using E. coli MISC 208 and cefaclor as substrate in the hydrolysis assays.

OXA-3 = OXA-3 (Pseudomonas aeruginosa, UniProt Q51429); assay: Indirect reagent disk test, antibiotic inactivation; assay type: cell-based; conditions: enzyme OXA-3; indirect method
Description: as §3, §4

OXA-2 = OXA-2 (Escherichia coli, UniProt P0A1V9); assay: as above; assay type: cell-based; conditions: enzyme OXA-2; indirect method
Procedure: as §4

FOX-1 = assay: as above; assay type: cell-based; conditions: enzyme FOX-1; indirect method
Description: as §3, §4

Class A Carbapenemases = assay: Indirect TE disk test for detection of Class A Carbapenemases; assay type: cell-based; conditions: for CACs detected by indirect TE disk test: 21 CAC-producing strains, E. coli ATCC 25922 lawn; for False positive results in indirect TE disk test: strains producing non-CAC enzymes (metallo/OXA carbapenemases, AmpC, ESBLs)
Procedure: Methods: 21 strains that produced Class A Carbapenemases (“CACs”) comprising 12 Klebsiella pneumoniae, 5 Enterobacter cloacae, 2 Escherichia coli, and 2 Serratia marcescens; 10 strains of Acinetobacter baumannii, Pseudomonas aeruginosa, and S. marcescens that produced either a metallo-beta-lactamase or an OXA carbapenemases, and 11 strains of Enterobacteriaceae that produced either AmpC β-lactamases or ESBLs were investigated. The test was performed essentially as described in Example 5, with any changes noted below. The indirect test involved inoculation of the surface of a Mueller-Hinton (MH) agar plate with a lawn of E. coli ATCC 25922, not the test organism. Immediately prior to incubation, a premoistened TE disk was inoculated with several colonies of the test organism and placed face down on the MH agar adjacent to a disk containing one of the carbapenems, imipenem (IPM), meropenem (MER), or ertapenem (ERT). After overnight incubation, an indentation of the zone inhibition was interpreted as positive.

LAT-1 = assay: Indirect reagent disk test, antibiotic inactivation; assay type: cell-based; conditions: enzyme LAT-1; indirect method; also: key: P, positive; N, negative; WP, weak positive (slight flattening); ?, results were questionable
Description: as §1

ACT-1 = assay: as above; assay type: cell-based; conditions: enzyme ACT-1; indirect method
Description: as §3
(§5) An indentation of a zone of inhibition around the antibiotic dish was interpreted as positive for presence of antibiotic-inactivating factor.

AmpC = conditions: enzyme AmpC; indirect method
Description: as §3, §5

Chain of OXA-2 (P0A1V9 22-275): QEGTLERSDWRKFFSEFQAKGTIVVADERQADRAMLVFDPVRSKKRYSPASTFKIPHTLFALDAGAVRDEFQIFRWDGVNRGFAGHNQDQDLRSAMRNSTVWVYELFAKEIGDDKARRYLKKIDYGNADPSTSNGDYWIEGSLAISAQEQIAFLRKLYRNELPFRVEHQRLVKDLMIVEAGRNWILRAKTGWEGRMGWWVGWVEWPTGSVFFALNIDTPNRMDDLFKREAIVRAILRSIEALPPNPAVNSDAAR
Chain of L-1 (P52700 34-290): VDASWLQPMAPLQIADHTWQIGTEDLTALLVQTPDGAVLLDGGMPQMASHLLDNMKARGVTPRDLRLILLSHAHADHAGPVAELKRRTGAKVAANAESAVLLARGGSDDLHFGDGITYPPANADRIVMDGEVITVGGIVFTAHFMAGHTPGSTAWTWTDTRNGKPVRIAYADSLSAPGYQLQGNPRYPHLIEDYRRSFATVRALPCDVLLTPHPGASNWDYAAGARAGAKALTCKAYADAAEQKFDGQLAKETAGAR
Chain of SHV-1 (P0AD64 22-286): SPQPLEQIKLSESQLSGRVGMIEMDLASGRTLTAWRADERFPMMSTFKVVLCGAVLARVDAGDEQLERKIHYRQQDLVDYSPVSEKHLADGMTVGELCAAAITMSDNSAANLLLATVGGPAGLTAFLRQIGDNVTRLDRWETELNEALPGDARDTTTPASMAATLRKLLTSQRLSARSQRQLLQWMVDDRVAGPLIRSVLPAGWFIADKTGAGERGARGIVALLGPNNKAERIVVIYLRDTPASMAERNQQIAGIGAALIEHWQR
Chain of PSE-1 (Q03170 18-288): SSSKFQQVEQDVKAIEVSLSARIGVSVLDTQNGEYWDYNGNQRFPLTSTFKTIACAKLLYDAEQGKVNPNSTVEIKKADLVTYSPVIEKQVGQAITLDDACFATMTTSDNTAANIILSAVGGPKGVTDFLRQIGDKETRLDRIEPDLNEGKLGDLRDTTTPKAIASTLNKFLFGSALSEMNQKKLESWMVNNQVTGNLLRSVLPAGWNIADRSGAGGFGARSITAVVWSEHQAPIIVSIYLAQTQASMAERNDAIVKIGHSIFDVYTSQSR
Chain of OXA-5 (Q00982 20-267): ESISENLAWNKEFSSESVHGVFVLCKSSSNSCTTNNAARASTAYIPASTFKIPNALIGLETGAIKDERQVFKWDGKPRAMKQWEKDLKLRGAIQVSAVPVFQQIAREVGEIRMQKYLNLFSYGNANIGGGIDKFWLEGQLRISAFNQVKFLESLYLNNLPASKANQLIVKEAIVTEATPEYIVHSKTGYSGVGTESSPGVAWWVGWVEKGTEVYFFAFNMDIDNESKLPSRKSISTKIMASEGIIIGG
Chain of OXA-3 (Q51429 22-275): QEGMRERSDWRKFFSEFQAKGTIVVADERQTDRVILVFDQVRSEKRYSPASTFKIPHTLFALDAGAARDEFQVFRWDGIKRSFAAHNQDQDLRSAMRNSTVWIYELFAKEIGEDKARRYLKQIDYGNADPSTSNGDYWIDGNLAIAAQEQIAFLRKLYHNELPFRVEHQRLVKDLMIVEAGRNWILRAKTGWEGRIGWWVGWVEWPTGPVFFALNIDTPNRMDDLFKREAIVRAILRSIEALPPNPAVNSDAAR
Chain of SHV-2 (P0A9Z7 22-286): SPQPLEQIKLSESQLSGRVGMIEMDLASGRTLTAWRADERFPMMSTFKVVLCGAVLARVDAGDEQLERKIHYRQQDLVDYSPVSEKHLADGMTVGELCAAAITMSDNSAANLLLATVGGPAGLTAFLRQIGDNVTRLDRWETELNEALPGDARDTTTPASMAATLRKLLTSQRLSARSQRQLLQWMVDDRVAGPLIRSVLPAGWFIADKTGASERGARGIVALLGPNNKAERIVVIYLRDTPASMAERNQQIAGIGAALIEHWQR
Chain of SHV-4 (P37323 whole entry): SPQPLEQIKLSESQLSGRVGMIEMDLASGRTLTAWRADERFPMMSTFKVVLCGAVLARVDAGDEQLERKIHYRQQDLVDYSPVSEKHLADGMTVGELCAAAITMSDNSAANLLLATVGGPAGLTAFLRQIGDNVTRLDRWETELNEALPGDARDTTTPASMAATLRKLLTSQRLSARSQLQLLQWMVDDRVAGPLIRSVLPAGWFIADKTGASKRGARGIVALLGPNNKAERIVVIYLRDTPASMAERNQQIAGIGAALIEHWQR

## CC1(C)S[C@@H]2[C@H](NC(=O)[C@H](N)c3ccccc3)C(=O)N2[C@H]1C(=O)O [AM, ampicillin]
L-1
  Reagent disk test result (indentation of inhibition zone = antibiotic inactivation): N

## Cc1onc(-c2ccccc2Cl)c1C(=O)N[C@@H]1C(=O)N2[C@@H]1SC(C)(C)[C@@H]2C(=O)O [cloxacillin]
[1]
  Inhibition of β-lactamases (pIs 7.2, 7.7 or ≧9.0) in IEF inhibitor overlay: inhibited

## CO[C@@]1(NC(=O)Cc2cccs2)C(=O)N2C(C(=O)O)=C(COC(N)=O)CS[C@@H]21 [FOX, cefoxitin]
SHV-1
  Reagent disk test result (indentation of inhibition zone = antibiotic inactivation): N
OXA-4
  Reagent disk test result (indentation of inhibition zone = antibiotic inactivation): N
OXA-5
  Reagent disk test result (indentation of inhibition zone = antibiotic inactivation): N
OXA-6
  Reagent disk test result (indentation of inhibition zone = antibiotic inactivation): N
Klebsiella spp. isolates; thirty Klebsiella spp. isolates
  MIC: ≥ 16 µg/mL
Klebsiella spp. isolates; thirty isolates of Klebsiella spp., read-out: MIC
  MIC: ≥ 16 µg/mL
PSE-1
  Reagent disk test result (indentation of inhibition zone = antibiotic inactivation): N^n
L-1
  Reagent disk test result (indentation of inhibition zone = antibiotic inactivation): N
SHV-4
  Reagent disk test result (indentation of inhibition zone = antibiotic inactivation): N
TEM-46
  Reagent disk test result (indentation of inhibition zone = antibiotic inactivation): N
SHV-2
  Reagent disk test result (indentation of inhibition zone = antibiotic inactivation): N

## NC(CO)(CO)CO [Tris]
[2]
  Units of β-lactamase Activity (Nitrocefin as substrate): 41

## CCN1CCN(C(=O)N[C@@H](C(=O)N[C@@H]2C(=O)N3[C@@H]2SC(C)(C)[C@@H]3C(=O)O)c2ccccc2)C(=O)C1=O [Piperacillin]
E. coli V1104
  Units of β-lactamase Activity (Nitrocefin as substrate): 202

## Polymyxin B
E. coli MISC 208; agent 10 μg/ml
  Units of β-lactamase Activity (Cefaclor as substrate): 3.8
E. coli MISC 208; agent 30 μg/ml
  Units of β-lactamase Activity (Cefaclor as substrate): 15

## CO/N=C(\C(=O)N[C@@H]1C(=O)N2C(C(=O)O)=C(CSc3nc(=O)c(O)nn3C)CS[C@H]12)c1csc(N)n1 [CRO, ceftriaxone]
OXA-4
  Reagent disk test result (indentation of inhibition zone = antibiotic inactivation): N
OXA-5
  Reagent disk test result (indentation of inhibition zone = antibiotic inactivation): N
OXA-3
  Reagent disk test result (indentation of inhibition zone = antibiotic inactivation): N
PSE-1
  Reagent disk test result (indentation of inhibition zone = antibiotic inactivation): N
L-1
  Reagent disk test result (indentation of inhibition zone = antibiotic inactivation): N
OXA-2
  Reagent disk test result (indentation of inhibition zone = antibiotic inactivation): N

## C[C@@H](O)[C@H]1C(=O)N2C(C(=O)O)=C(SCCN=CN)C[C@H]12 [IPM, imipenem]
OXA-4
  Reagent disk test result (indentation of inhibition zone = antibiotic inactivation): N
OXA-6
  Reagent disk test result (indentation of inhibition zone = antibiotic inactivation): N
Klebsiella spp. isolates; the one positive Klebsiella isolate producing a carbapenem-hydrolyzing enzyme, read-out: MIC
  MIC: 64 µg/mL (≈ 214 µM)
FOX-1
  Reagent disk test result (indentation of inhibition zone = antibiotic inactivation): N
TEM-46
  Reagent disk test result (indentation of inhibition zone = antibiotic inactivation): N

## C[C@@H](O)[C@H]1C(=O)N2C(C(=O)O)=C(S[C@@H]3CN[C@H](C(=O)N(C)C)C3)[C@H](C)[C@H]12 [MEM, meropenem]
SHV-1
  Reagent disk test result (indentation of inhibition zone = antibiotic inactivation): N
OXA-4
  Reagent disk test result (indentation of inhibition zone = antibiotic inactivation): N
OXA-5
  Reagent disk test result (indentation of inhibition zone = antibiotic inactivation): N
OXA-6
  Reagent disk test result (indentation of inhibition zone = antibiotic inactivation): N
OXA-3
  Reagent disk test result (indentation of inhibition zone = antibiotic inactivation): N
Class A Carbapenemases
  CACs detected by indirect TE disk test: 19/21
  False positive results in indirect TE disk test: no false positive results
FOX-1
  Reagent disk test result (indentation of inhibition zone = antibiotic inactivation): N
LAT-1
  Reagent disk test result (indentation of inhibition zone = antibiotic inactivation): N
L-1
  Reagent disk test result (indentation of inhibition zone = antibiotic inactivation): N
SHV-4
  Reagent disk test result (indentation of inhibition zone = antibiotic inactivation): N
TEM-46
  Reagent disk test result (indentation of inhibition zone = antibiotic inactivation): N
OXA-2
  Reagent disk test result (indentation of inhibition zone = antibiotic inactivation): WP?
SHV-2
  Reagent disk test result (indentation of inhibition zone = antibiotic inactivation): N

## C[C@@H](O)[C@H]1C(=O)N2C(C(=O)O)=C(S[C@@H]3CN[C@H](C(=O)Nc4cccc(C(=O)O)c4)C3)[C@H](C)[C@H]12 [ERT, ertapenem]
Class A Carbapenemases
  CACs detected by indirect TE disk test: all
  False positive results in indirect TE disk test: no false positive results

## benzalkonium chloride
E. coli MISC 208; agent 200 μg/ml
  Units of β-lactamase Activity (Cefaclor as substrate): 16

## C[C@H]1[C@H](NC(=O)/C(=N\OC(C)(C)C(=O)O)c2csc(N)n2)C(=O)N1S(=O)(=O)O [Aztreonam, aztreonam]
SHV-1
  Reagent disk test result (indentation of inhibition zone = antibiotic inactivation): N
E. coli V1104
  Units of β-lactamase Activity (Nitrocefin as substrate): 210
OXA-4
  Reagent disk test result (indentation of inhibition zone = antibiotic inactivation): N
ACT-1
  Reagent disk test result (indentation of inhibition zone = antibiotic inactivation): N
OXA-5
  Reagent disk test result (indentation of inhibition zone = antibiotic inactivation): N
OXA-6
  Reagent disk test result (indentation of inhibition zone = antibiotic inactivation): N
OXA-3
  Reagent disk test result (indentation of inhibition zone = antibiotic inactivation): N
AmpC
  Reagent disk test result (indentation of inhibition zone = antibiotic inactivation): N
FOX-1
  Reagent disk test result (indentation of inhibition zone = antibiotic inactivation): N
PSE-1
  Reagent disk test result (indentation of inhibition zone = antibiotic inactivation): N
LAT-1
  Reagent disk test result (indentation of inhibition zone = antibiotic inactivation): N
L-1
  Reagent disk test result (indentation of inhibition zone = antibiotic inactivation): N
OXA-2
  Reagent disk test result (indentation of inhibition zone = antibiotic inactivation): N

## CO[C@@]1(NC(=O)CSCC#N)C(=O)N2C(C(=O)O)=C(CSc3nnnn3C)CS[C@@H]21 [CMZ, cefmetazole]
PSE-1
  Reagent disk test result (indentation of inhibition zone = antibiotic inactivation): P^m
TEM-46
  Reagent disk test result (indentation of inhibition zone = antibiotic inactivation): N

## CO/N=C(\C(=O)N[C@@H]1C(=O)N2C(C(=O)O)=C(COC(C)=O)CS[C@H]12)c1csc(N)n1 [CTX, cefotaxime]
OXA-5
  Reagent disk test result (indentation of inhibition zone = antibiotic inactivation): N
OXA-6
  Reagent disk test result (indentation of inhibition zone = antibiotic inactivation): WP?
OXA-3
  Reagent disk test result (indentation of inhibition zone = antibiotic inactivation): N
PSE-1
  Reagent disk test result (indentation of inhibition zone = antibiotic inactivation): N
L-1
  Reagent disk test result (indentation of inhibition zone = antibiotic inactivation): N
TEM-46
  Reagent disk test result (indentation of inhibition zone = antibiotic inactivation): N
OXA-2
  Reagent disk test result (indentation of inhibition zone = antibiotic inactivation): N
